Values of other authors in patent US9918970B2, “Pharmaceutical composition comprising solifenacin” (Astellas Pharma Inc., priority 2010, dated 2018).

Molecular target: muscarinic M3 receptor (Homo sapiens, UniProt P20309)
Sequence (P20309 whole entry): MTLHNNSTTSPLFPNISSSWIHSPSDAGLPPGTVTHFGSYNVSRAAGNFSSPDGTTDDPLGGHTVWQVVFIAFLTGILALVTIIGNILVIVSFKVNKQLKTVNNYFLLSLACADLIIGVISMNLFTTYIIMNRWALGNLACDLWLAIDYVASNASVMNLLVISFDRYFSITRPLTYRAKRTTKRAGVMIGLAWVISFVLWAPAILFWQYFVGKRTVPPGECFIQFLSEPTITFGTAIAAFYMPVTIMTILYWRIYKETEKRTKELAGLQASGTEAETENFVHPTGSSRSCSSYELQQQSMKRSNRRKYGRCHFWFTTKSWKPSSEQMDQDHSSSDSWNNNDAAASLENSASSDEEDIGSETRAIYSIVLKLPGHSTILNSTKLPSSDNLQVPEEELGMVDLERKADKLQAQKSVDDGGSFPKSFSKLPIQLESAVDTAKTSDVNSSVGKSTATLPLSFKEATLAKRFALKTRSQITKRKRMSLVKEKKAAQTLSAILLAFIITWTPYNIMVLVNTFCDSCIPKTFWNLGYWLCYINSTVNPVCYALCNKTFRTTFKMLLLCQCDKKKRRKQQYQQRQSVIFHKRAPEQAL

O=C(O[C@H]1CN2CCC1CC2)N1CCc2ccccc2[C@@H]1c1ccccc1 [solifenacin, (R)-quinuclidin-3-yl (S)-1-phenyl-1,2,3,4-tetrahydroisoquinoline-2-carboxylate]
antagonistic activity against muscarinic M3 receptor (in words): excellent selective antagonistic activity | selectivity for the M3 receptor as compared with the M2 receptor (in words) (M3 in smooth muscle, gland tissues, M2 in heart): higher selectivity
